# In US20230406864A1, “7-AZOLE SUBSTITUTED 2-AMINOQUINAZOLINE INHIBITORS OF HPK1” (MERCK SHARP & DOHME LLC, priority 2020, published 2023):
# Target: T1, Human HPK1, catalytic domain (Homo sapiens, UniProt Q92918)
# T1 construct: purchased Cama (so in the source)
# T1 sequence (Q92918 1-346): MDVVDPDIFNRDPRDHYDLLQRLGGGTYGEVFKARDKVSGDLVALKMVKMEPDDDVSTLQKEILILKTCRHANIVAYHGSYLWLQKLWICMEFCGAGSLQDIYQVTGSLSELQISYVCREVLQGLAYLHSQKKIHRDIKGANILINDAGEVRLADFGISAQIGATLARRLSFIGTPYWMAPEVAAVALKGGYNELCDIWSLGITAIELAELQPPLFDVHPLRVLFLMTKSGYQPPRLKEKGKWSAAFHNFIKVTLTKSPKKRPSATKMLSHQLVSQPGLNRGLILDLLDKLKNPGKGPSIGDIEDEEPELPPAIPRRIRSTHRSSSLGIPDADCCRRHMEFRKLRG
# Test: HPK1-SLP76 TR-FRET assay
# Type: biochemical
# Settings: HPK1 kinase domain 0.075 nM; full length SLP-76 10 nM; ATP 10 μM; 30 min preincubation; 60 min reaction; room temperature
row,IC50 [nM],Compound
1,0.15,"Cc1c(-c2cc3nc(Nc4cnn(C5CCN(C)C5=O)c4)ncc3c(N)c2F)cnc2c1NCCO2 (single isomer, unassigned) [Example 2-19, (S or R)-3-(4-{[5-amino-6-fluoro-7-(8-methyl-2,3-dihydro-1H-pyrido[2,3-b][1,4]oxazin-7-yl)quinazolin-2-yl]amino}-1H-pyrazol-1-yl)-1-methylpyrrolidin-2-one]"
2,0.35,"Cc1c(-c2cc3nc(Nc4cnn(C5CCN(C)C5=O)c4)ncc3c(N)c2F)cnc2c1NCCO2 (single isomer, unassigned) [Example 2-21, (S or R)-3-(4-{[5-amino-6-fluoro-7-(8-methyl-2,3-dihydro-1H-pyrido[2,3-b][1,4]oxazin-7-yl)quinazolin-2-yl]amino}-1H-pyrazol-1-yl)-1-methylpyrrolidin-2-one]"
3,1.2,"Cc1c(-c2ccc3cnc(Nc4cnn(C5COC5)c4)nc3c2)cnc2c1NCCO2 [Example 1-1, 7-(8-methyl-2,3-dihydro-1H-pyrido[2,3-b][1,4]oxazin-7-yl)-N-[1-(oxetan-3-yl)-1H-pyrazol-4-yl]quinazolin-2-amine]"
4,0.22,"Cc1c(-c2ccc3cnc(Nc4cnn(C5CC6(C5)CN(C5(C)COC5)C6)c4)nc3c2)cnc2c1NCCO2 [Example 1-2, 7-(8-methyl-2,3-dihydro-1H-pyrido[2,3-b][1,4]oxazin-7-yl)-N-{1-[2-(3-methyloxetan-3-yl)-2-azaspiro[3.3]heptan-6-yl]-1H-pyrazol-4-yl}quinazolin-2-amine]"
5,0.26,"CCC(=O)N1CC(n2cc(Nc3ncc4ccc(-c5cnc6c(c5C)NCCO6)cc4n3)cn2)C1 [Example 1-3, 1-[3-(4-{[7-(8-methyl-2,3-dihydro-1H-pyrido[2,3-b][1,4]oxazin-7-yl)quinazolin-2-yl]amino}-1H-pyrazol-1-yl)azetidin-1-yl]propan-1-one]"
6,5.3,"Cc1c(-c2ccc3cnc(Nc4cc5n(n4)CC(=O)N(C)CC54CC4)nc3c2)cnc2c1NCCO2 [Example 1-4, 6′-methyl-2′-{[7-(8-methyl-2,3-dihydro-1H-pyrido[2,3-b][1,4]oxazin-7-yl)quinazolin-2-yl]amino}-5′,6′-dihydrospiro[cyclopropane-1,4′-pyrazolo[1,5-d][1,4]diazepin]-7′(8′H)-one]"
7,0.71,"Cc1c(-c2ccc3cnc(Nc4cnn(C)c4)nc3c2)cnc2c1NCCO2 [Example 1-5, 7-(8-methyl-2,3-dihydro-1H-pyrido[2,3-b][1,4]oxazin-7-yl)-N-(1-methyl-1H-pyrazol-4-yl)quinazolin-2-amine]"
8,0.34,"Cc1c(-c2ccc3cnc(Nc4cc5n(n4)CCN(C(C)C)C(=O)C5)nc3c2)cnc2c1NCCO2 [Example 1-7, 2-{[7-(8-methyl-2,3-dihydro-1H-pyrido[2,3-b][1,4]oxazin-7-yl)quinazolin-2-yl]amino}-6-(propan-2-yl)-7,8-dihydro-4H-pyrazolo[1,5-d][1,4]diazepin-5(6H)-one]"
9,0.675,"Cc1c(-c2ccc3cnc(Nc4cc5n(n4)CCN(CC(C)(C)O)C(=O)C5)nc3c2)cnc2c1NCCO2 [Example 1-8, 6-(2-hydroxy-2-methylpropyl)-2-((7-(8-methyl-2,3-dihydro-1H-pyrido[2,3-b][1,4]oxazin-7-yl)quinazolin-2-yl)amino)-7,8-dihydro-4H-pyrazolo[1,5-d][1,4]diazepin-5(6H)-one]"
10,0.42,"CCC(=O)N1CC(n2cc(Nc3ncc4c(N)c(F)c(-c5cnc6c(c5C)NCCO6)cc4n3)cn2)C1 [Example 2-1, 1-[3-(4-{[5-amino-6-fluoro-7-(8-methyl-2,3-dihydro-1H-pyrido[2,3-b][1,4]oxazin-7-yl)quinazolin-2-yl]amino}-1H-pyrazol-1-yl)azetidin-1-yl]propan-1-one]"
11,0.14,"Cc1c(-c2cc3nc(Nc4cnn(C5CC6(C5)CN(C5(C)COC5)C6)c4)ncc3c(N)c2F)cnc2c1NCCO2 [Example 2-2, 6-fluoro-7-(8-methyl-2,3-dihydro-1H-pyrido[2,3-b][1,4]oxazin-7-yl)-N~2~-{1-[2-(3-methyloxetan-3-yl)-2-azaspiro[3.3]heptan-6-yl]-1H-pyrazol-4-yl}quinazoline-2,5-diamine]"
12,0.12,"Cc1c(-c2cc3nc(Nc4cnn(C5CCN(C6(C)COC6)CC5)c4)ncc3c(N)c2F)cnc2c1NCCO2 [Example 2-3, 6-fluoro-7-(8-methyl-2,3-dihydro-1H-pyrido[2,3-b][1,4]oxazin-7-yl)-N~2~-{1-[1-(3-methyloxetan-3-yl)piperidin-4-yl]-1H-pyrazol-4-yl}quinazoline-2,5-diamine]"
13,0.47,"Cc1c(-c2cc3nc(Nc4cnn(C5CC6(CNC6)C5)c4)ncc3c(N)c2F)cnc2c1NCCO2 [Example 2-4, N~2~-[1-(2-azaspiro[3.3]heptan-6-yl)-1H-pyrazol-4-yl]-6-fluoro-7-(8-methyl-2,3-dihydro-1H-pyrido[2,3-b][1,4]oxazin-7-yl)quinazoline-2,5-diamine]"
14,0.29,"Cc1c(-c2cc3nc(Nc4cnn(C5CNC5)c4)ncc3c(N)c2F)cnc2c1NCCO2 [Example 2-5, N~2~-[1-(azetidin-3-yl)-1H-pyrazol-4-yl]-6-fluoro-7-(8-methyl-2,3-dihydro-1H-pyrido[2,3-b][1,4]oxazin-7-yl)quinazoline-2,5-diamine]"
15,0.14,"Cc1c(-c2cc3nc(Nc4cnn(CC5CC5)c4)ncc3c(N)c2F)cnc2c1NCCO2 [Example 2-6, N~2~-[1-(cyclopropylmethyl)-1H-pyrazol-4-yl]-6-fluoro-7-(8-methyl-2,3-dihydro-1H-pyrido[2,3-b][1,4]oxazin-7-yl)quinazoline-2,5-diamine]"
16,0.26,"Cc1c(-c2cc3nc(Nc4cnn(CC(F)(F)F)c4)ncc3c(N)c2F)cnc2c1NCCO2 [Example 2-7, 6-fluoro-7-(8-methyl-2,3-dihydro-1H-pyrido[2,3-b][1,4]oxazin-7-yl)-N~2~-[1-(2,2,2-trifluoroethyl)-1H-pyrazol-4-yl]quinazoline-2,5-diamine]"
17,0.088,"Cc1c(-c2cc3nc(Nc4cnn(C5(C)CC5)c4)ncc3c(N)c2F)cnc2c1NCCO2 [Example 2-8, 6-fluoro-N~2~-[1-(1-methylcyclopropyl)-1H-pyrazol-4-yl]-7-(8-methyl-2,3-dihydro-1H-pyrido[2,3-b][1,4]oxazin-7-yl)quinazoline-2,5-diamine]"
18,0.14,"Cc1c(-c2cc3nc(Nc4cnn(C5CC5)c4)ncc3c(N)c2F)cnc2c1NCCO2 [Example 2-9, N~2~-(1-cyclopropyl-1H-pyrazol-4-yl)-6-fluoro-7-(8-methyl-2,3-dihydro-1H-pyrido[2,3-b][1,4]oxazin-7-yl)quinazoline-2,5-diamine]"
19,0.13,"Cc1c(-c2cc3nc(Nc4cnn(C)c4)ncc3c(N)c2F)cnc2c1NCCO2 [Example 2-10, 6-fluoro-7-(8-methyl-2,3-dihydro-1H-pyrido[2,3-b][1,4]oxazin-7-yl)-N~2~-(1-methyl-1H-pyrazol-4-yl)quinazoline-2,5-diamine]"
20,0.071,"Cc1c(-c2cc3nc(Nc4cnn(C5CCNCC5)c4)ncc3c(N)c2F)cnc2c1NCCO2 [Example 2-11, 6-fluoro-7-(8-methyl-2,3-dihydro-1H-pyrido[2,3-b][1,4]oxazin-7-yl)-N~2~-[1-(piperidin-4-yl)-1H-pyrazol-4-yl]quinazoline-2,5-diamine]"
21,2.8,"Cc1c(-c2cc3nc(Nc4cnn(Cc5ccccc5)c4)ncc3c(N)c2F)cnc2c1NCCO2 [Example 2-12, N~2~-(1-benzyl-1H-pyrazol-4-yl)-6-fluoro-7-(8-methyl-2,3-dihydro-1H-pyrido[2,3-b][1,4]oxazin-7-yl)quinazoline-2,5-diamine]"
22,0.77,"Cc1c(-c2cc3nc(Nc4cnn(CC(C)C)c4)ncc3c(N)c2F)cnc2c1NCCO2 [Example 2-13, 6-fluoro-7-(8-methyl-2,3-dihydro-1H-pyrido[2,3-b][1,4]oxazin-7-yl)-N~2~-[1-(2-methylpropyl)-1H-pyrazol-4-yl]quinazoline-2,5-diamine]"
23,0.16,"Cc1c(-c2cc3nc(Nc4cnn(C(C)C)c4)ncc3c(N)c2F)cnc2c1NCCO2 [Example 2-14, 6-fluoro-7-(8-methyl-2,3-dihydro-1H-pyrido[2,3-b][1,4]oxazin-7-yl)-N~2~-[1-(propan-2-yl)-1H-pyrazol-4-yl]quinazoline-2,5-diamine]"
24,0.22,"COC(=O)C12CC(n3cc(Nc4ncc5c(N)c(F)c(-c6cnc7c(c6C)NCCO7)cc5n4)cn3)(C1)C2 [Example 2-15, methyl 3-(4-{[5-amino-6-fluoro-7-(8-methyl-2,3-dihydro-1H-pyrido[2,3-b][1,4]oxazin-7-yl)quinazolin-2-yl]amino}-1H-pyrazol-1-yl)bicyclo[1.1.1]pentane-1-carboxylate]"
25,0.51,"CCn1ncc(Nc2ncc3c(N)c(F)c(-c4cnc5c(c4C)NCCO5)cc3n2)c1C [Example 2-16, N~2~-(1-ethyl-5-methyl-1H-pyrazol-4-yl)-6-fluoro-7-(8-methyl-2,3-dihydro-1H-pyrido[2,3-b][1,4]oxazin-7-yl)quinazoline-2,5-diamine]"
26,0.38,"Cc1cc(Nc2ncc3c(N)c(F)c(-c4cnc5c(c4C)NCCO5)cc3n2)sn1 [Example 2-17, 6-fluoro-7-(8-methyl-2,3-dihydro-1H-pyrido[2,3-b][1,4]oxazin-7-yl)-N~2~-(3-methyl-1,2-thiazol-5-yl)quinazoline-2,5-diamine]"
27,2,"Cc1c(-c2cc3nc(Nc4cnn(CC(C)(C)O)c4Cl)ncc3c(N)c2F)cnc2c1NCCO2 [Example 2-18, 1-(4-{[5-amino-6-fluoro-7-(8-methyl-2,3-dihydro-1H-pyrido[2,3-b][1,4]oxazin-7-yl)quinazolin-2-yl]amino}-5-chloro-1H-pyrazol-1-yl)-2-methypropan-2-ol]"
